Legend:
THP-1 [1] = experiment: Anti-inflammatory activity in human THP-1 cells assessed as inhibition of IL-1beta protein expression incubated for 24 hrs by Western blot analysis; assay type: functional, cell-based; conditions: THP-1, 24 h
THP-1 [2] = experiment: Antiinflammatory activity against human THP-1 cells assessed as inhibition of LPS-induced TNF-alpha production; assay type: functional, cell-based
RAW264.7 = experiment: Anti-inflammatory activity in LPS-induced mouse RAW264.7 cells assessed as inhibition of IL-6 production; assay type: functional, cell-based
[3] = Oral bioavailability in Sprague-Dawley rat at 10 mg/kg by LC-MS analysis; assay type: ADME, organism-based; conditions: in vivo
[4] = Clearance in Sprague-Dawley rat at 10 mg/kg, iv by HPLC-MS analysis; assay type: ADME, organism-based; conditions: in vivo
[5] = Volume of distribution at steady state in Sprague-Dawley rat at 10 mg/kg, iv measured for 24 hrs by LC-MS/MS analysis; assay type: ADME, organism-based; conditions: in vivo, read-out: Vdss
[6] = Tmax in Wistar rat at 10 mg/kg, po by LC-MS/MS analysis; assay type: ADME, organism-based; conditions: in vivo
[7] = Cmax in Wistar rat at 10 mg/kg, po by LC-MS/MS analysis; assay type: ADME, organism-based; conditions: in vivo
[8] = AUC in Sprague-Dawley rat at 10 mg/kg, po measured for 24 hrs by LC-MS/MS analysis; assay type: ADME, organism-based; conditions: in vivo
[9] = biological target: Dual specificity mitogen-activated protein kinase kinase 1 (Homo sapiens) (UniProt Q02750); experiment: Inhibition of MKK1 (unknown origin) at 1 uM relative to control; conditions: values are per cent of control
[10] = biological target: Mitogen-activated protein kinase 1 (Homo sapiens) (UniProt P28482); experiment: Inhibition of ERK2 (unknown origin) at 1 uM relative to control; conditions: values are per cent of control
[11] = biological target: Mitogen-activated protein kinase 8 (Homo sapiens) (UniProt P45983); experiment: Inhibition of JNK1alpha1 (unknown origin) at 1 uM relative to control; conditions: values are per cent of control
[12] = biological target: Ribosomal protein S6 kinase alpha-1 (Homo sapiens) (UniProt Q15418); experiment: Inhibition of RSK1 (unknown origin) at 1 uM relative to control; conditions: values are per cent of control
[13] = biological target: MAP kinase-activated protein kinase 5 (Homo sapiens) (UniProt Q8IW41); experiment: Inhibition of PRAK (unknown origin) at 1 uM relative to control; conditions: values are per cent of control
Homo sapiens [14] = species on record: Homo sapiens; experiment: Inhibition of PKA (unknown origin) at 1 uM relative to control; conditions: values are per cent of control
[15] = biological target: Protein kinase C alpha type (Homo sapiens, UniProt P17252); experiment: Inhibition of PKCalpha (unknown origin) at 1 uM in presence of ATP relative to control; conditions: values are per cent of control
[16] = biological target: Serine/threonine-protein kinase Sgk1 (Homo sapiens) (UniProt O00141); experiment: Inhibition of SGK1 (unknown origin) at 1 uM by Z'LYTE kinase assay relative to control; conditions: values are per cent of control
[17] = biological target: Ribosomal protein S6 kinase beta-1 (Homo sapiens) (UniProt P23443); experiment: Inhibition of S6K1 (unknown origin) at 1 uM relative to control; conditions: values are per cent of control
[18] = biological target: Rho-associated protein kinase 2 (Homo sapiens) (UniProt O75116); experiment: Inhibition of ROCK2 (unknown origin) at 1 uM relative to control; conditions: values are per cent of control
[19] = biological target: Casein kinase 2 (Homo sapiens) (UniProt P67870+P68400+P19784+Q8NEV1); experiment: Inhibition of CK2 (unknown origin) at 1 uM relative to control; assay type: protein assay; conditions: values are per cent of control
Homo sapiens [20] = species on record: Homo sapiens; experiment: Inhibition of CK1 (unknown origin) at 1 uM relative to control; conditions: values are per cent of control
Homo sapiens [21] = species on record: Homo sapiens; experiment: Inhibition of CK1 (unknown origin) at 10 uM relative to control; conditions: values are per cent of control
[22] = biological target: Dual specificity tyrosine-phosphorylation-regulated kinase 1A (Homo sapiens) (UniProt Q13627); experiment: Inhibition of DYRK1A (unknown origin) at 1 uM relative to control; conditions: values are per cent of control
[23] = biological target: Dual specificity tyrosine-phosphorylation-regulated kinase 1A (Homo sapiens) (UniProt Q13627); experiment: Inhibition of DYRK1A (unknown origin) at 10 uM relative to control; conditions: values are per cent of control

Chain of Dual specificity mitogen-activated protein kinase kinase 1 (Homo sapiens) (Q02750 whole entry): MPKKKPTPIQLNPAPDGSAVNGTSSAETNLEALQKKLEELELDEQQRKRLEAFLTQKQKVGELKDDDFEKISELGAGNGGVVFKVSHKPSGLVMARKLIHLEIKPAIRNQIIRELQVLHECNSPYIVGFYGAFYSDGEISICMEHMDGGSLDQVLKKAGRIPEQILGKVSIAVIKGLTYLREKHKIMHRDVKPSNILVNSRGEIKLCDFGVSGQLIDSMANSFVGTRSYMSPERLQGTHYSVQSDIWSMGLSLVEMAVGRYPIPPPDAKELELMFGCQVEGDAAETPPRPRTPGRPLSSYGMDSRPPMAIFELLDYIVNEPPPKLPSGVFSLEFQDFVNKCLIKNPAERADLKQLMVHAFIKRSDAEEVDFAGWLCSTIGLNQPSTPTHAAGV
Chain of MAP kinase-activated protein kinase 5 (Homo sapiens) (Q8IW41 whole entry): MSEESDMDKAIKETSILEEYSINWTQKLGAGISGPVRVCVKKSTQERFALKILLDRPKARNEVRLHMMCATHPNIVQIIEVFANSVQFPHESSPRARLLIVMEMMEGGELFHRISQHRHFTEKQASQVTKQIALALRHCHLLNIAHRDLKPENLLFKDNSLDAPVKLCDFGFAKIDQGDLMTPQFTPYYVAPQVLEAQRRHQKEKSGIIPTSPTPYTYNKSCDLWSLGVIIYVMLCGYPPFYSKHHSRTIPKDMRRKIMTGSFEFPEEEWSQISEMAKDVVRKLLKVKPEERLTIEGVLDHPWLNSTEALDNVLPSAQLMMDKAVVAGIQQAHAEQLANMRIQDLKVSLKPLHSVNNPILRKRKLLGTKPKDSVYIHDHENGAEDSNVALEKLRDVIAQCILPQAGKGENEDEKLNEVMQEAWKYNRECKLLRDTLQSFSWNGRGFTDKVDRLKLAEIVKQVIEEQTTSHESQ
Chain of Serine/threonine-protein kinase Sgk1 (Homo sapiens) (O00141 whole entry): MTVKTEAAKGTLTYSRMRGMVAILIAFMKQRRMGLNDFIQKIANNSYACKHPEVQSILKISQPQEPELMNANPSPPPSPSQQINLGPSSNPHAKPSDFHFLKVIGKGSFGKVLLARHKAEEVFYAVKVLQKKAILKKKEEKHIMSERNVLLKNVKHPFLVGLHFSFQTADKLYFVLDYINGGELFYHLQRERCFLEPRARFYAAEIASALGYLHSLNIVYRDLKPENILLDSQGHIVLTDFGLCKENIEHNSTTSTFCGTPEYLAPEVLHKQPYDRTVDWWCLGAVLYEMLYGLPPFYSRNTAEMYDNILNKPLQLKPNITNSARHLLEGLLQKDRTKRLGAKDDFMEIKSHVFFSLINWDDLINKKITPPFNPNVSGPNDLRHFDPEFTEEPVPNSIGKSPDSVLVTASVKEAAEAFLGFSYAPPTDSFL
Chain of Mitogen-activated protein kinase 8 (Homo sapiens) (P45983 whole entry): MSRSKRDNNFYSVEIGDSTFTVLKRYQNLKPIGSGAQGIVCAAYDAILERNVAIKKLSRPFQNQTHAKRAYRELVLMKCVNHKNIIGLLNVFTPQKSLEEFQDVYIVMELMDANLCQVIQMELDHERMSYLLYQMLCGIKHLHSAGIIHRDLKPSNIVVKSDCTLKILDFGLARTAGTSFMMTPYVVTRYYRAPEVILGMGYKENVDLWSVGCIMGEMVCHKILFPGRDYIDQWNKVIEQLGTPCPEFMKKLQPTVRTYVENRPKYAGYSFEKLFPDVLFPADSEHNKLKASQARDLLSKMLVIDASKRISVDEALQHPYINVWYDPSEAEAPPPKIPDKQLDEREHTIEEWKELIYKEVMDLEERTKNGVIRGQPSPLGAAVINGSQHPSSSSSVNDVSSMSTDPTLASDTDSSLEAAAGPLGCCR
Chain of Ribosomal protein S6 kinase alpha-1 (Homo sapiens) (Q15418 whole entry): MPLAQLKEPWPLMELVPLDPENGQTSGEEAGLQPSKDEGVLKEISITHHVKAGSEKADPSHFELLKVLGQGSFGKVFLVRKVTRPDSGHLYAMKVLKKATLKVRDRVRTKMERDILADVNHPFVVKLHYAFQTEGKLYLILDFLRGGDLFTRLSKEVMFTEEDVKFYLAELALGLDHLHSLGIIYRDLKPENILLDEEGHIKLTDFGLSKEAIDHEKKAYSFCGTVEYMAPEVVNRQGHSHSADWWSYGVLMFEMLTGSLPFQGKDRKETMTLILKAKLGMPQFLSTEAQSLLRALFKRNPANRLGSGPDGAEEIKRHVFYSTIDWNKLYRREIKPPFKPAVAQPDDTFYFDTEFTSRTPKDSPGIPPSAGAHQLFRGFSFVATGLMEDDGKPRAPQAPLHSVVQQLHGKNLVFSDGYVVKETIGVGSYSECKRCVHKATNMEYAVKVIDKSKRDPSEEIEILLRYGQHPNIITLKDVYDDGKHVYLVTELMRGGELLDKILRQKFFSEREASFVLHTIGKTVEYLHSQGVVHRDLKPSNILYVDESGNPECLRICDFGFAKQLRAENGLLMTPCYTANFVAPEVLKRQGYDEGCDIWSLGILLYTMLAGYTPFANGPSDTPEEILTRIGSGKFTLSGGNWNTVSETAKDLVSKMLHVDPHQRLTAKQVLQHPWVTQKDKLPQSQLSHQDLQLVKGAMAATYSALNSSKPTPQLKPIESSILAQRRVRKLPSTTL
Chain of Rho-associated protein kinase 2 (Homo sapiens) (O75116 whole entry, looked up): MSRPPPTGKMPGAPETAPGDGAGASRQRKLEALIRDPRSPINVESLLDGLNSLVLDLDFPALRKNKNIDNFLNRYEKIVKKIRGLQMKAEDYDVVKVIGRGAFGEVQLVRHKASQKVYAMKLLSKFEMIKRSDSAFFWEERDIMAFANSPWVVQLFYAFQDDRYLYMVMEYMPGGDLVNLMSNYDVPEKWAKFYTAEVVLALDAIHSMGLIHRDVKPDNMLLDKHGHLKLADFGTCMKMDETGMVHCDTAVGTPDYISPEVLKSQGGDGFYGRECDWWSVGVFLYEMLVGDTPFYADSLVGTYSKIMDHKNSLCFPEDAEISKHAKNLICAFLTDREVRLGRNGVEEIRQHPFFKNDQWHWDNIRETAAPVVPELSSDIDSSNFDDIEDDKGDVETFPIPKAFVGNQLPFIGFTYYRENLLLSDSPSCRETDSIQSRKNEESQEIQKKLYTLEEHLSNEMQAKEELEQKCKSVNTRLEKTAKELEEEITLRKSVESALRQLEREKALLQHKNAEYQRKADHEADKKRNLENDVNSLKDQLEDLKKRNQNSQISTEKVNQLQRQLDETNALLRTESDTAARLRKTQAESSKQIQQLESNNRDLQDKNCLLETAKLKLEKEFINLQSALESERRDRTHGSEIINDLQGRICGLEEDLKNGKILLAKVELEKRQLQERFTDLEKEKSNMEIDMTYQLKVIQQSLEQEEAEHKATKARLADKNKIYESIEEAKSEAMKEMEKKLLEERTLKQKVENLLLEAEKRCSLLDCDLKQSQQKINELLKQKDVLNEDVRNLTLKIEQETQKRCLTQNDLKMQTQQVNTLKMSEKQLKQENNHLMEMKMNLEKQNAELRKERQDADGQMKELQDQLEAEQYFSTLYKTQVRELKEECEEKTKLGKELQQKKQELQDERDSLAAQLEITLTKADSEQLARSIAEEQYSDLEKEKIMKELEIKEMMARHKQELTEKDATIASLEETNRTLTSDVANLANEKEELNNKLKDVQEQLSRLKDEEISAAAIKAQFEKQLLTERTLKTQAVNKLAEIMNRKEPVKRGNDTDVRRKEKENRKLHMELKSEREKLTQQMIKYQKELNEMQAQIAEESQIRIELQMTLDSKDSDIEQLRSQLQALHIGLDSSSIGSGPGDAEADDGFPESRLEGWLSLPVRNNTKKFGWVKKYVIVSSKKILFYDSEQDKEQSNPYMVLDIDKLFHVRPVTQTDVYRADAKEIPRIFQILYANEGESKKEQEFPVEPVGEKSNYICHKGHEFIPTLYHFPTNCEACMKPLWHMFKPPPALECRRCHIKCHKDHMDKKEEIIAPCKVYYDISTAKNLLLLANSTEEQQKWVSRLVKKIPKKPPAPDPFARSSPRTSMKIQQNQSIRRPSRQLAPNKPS
Chain of Ribosomal protein S6 kinase beta-1 (Homo sapiens) (P23443 whole entry, looked up): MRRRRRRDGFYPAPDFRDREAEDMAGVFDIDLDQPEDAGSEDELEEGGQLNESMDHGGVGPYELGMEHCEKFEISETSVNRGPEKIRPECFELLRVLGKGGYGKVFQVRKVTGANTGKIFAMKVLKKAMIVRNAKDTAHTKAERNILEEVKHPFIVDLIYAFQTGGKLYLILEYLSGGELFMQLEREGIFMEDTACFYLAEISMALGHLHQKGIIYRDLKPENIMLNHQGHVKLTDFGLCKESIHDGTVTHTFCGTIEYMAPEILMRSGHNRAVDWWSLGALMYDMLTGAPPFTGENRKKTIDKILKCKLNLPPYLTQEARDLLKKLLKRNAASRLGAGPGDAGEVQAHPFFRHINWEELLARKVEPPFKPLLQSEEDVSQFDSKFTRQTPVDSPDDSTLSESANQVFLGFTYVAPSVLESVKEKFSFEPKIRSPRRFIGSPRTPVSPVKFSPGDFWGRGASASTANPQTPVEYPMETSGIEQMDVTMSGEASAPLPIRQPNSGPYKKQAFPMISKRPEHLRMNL
Chain of Mitogen-activated protein kinase 1 (Homo sapiens) (P28482 whole entry): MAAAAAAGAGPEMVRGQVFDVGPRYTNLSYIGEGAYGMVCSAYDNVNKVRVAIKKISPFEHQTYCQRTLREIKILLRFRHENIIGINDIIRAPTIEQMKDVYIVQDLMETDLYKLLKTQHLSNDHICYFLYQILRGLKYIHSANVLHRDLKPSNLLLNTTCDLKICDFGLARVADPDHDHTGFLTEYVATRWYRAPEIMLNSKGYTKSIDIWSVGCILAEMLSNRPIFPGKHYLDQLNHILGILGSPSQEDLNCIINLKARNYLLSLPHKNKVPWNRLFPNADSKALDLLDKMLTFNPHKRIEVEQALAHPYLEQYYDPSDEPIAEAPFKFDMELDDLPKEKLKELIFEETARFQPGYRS

Structure (SMILES): Cn1c(=O)c(Oc2ccc(F)cc2F)cc2cnc(NC3CCOCC3)nc21 [R-1487]
- IC50 (THP-1 [1]): 170 nM
- IC50 (THP-1 [2]): 800 nM
- EC50 (RAW264.7): 10 nM
- bioavailability [3]: 29.3%
- clearance [4]: 20.7 mL/min/kg
- Vd [5]: 1.94 L/kg
- Tmax [6]: 2 h
- Cmax [7]: 650 ng/mL
- AUC [8]: 2.35 µg/h/mL

Structure (SMILES): Cc1ccc(-n2nc(C(C)(C)C)cc2NC(=O)Nc2ccc(OCCN3CCOCC3)c3ccccc23)cc1
- residual activity [9]: 71%
- residual activity [10]: 79%
- residual activity [11]: 70%
- residual activity [12]: 59%
- residual activity [13]: 71%
- residual activity (Homo sapiens [14]): 88%
- residual activity [15]: 80%
- residual activity [16]: 94%
- residual activity [17]: 119%
- residual activity [18]: 80%
- residual activity [19]: 85%
- residual activity (Homo sapiens [20]): 87%
- residual activity (Homo sapiens [21]): 84%
- residual activity [22]: 82%
- residual activity [23]: 79%
